This is an account of results in patent publication US5082843A, “Pyrazinyl and pyridazinyl ethers” (John Wyeth and Brother Limited, priority 1987, dated 1992).

Assay [1] has as its target T1, 5-HT3 receptors (Rattus norvegicus, UniProt P35563).
T1 construct: isolated vagus nerve of the rat; from tissue; host or cells: isolated (cervical) vagus nerve of the rat
T1 sequence (P35563 24-483): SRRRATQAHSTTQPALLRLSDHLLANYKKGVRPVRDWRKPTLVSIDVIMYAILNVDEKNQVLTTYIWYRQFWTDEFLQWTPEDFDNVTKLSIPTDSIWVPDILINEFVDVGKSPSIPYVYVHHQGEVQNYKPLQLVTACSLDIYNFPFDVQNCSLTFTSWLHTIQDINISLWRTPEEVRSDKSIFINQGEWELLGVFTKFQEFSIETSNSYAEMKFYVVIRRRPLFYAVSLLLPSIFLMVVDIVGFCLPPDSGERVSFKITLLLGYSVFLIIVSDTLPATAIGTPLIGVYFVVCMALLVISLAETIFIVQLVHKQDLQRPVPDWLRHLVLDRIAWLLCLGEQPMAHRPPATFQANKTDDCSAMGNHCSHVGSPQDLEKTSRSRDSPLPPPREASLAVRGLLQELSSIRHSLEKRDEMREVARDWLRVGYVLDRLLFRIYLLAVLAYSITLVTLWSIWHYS
Description: 5-HT3 receptor antagonism in the isolated vagus nerve of the rat (5-HT induced depolarization). The note with it: isolated rat cervical vagus nerve; antagonism of 5-HT induced depolarization; from 5-HT concentration ratios; read-out: apparent pKB (converted). How it is done: The compound of the invention are tested for 5-HT3 receptor antagonism in the isolated vagus nerve of the rat by a method based upon that of Ireland S. J. and Tyers M. B., Brit. J. Pharmacol., 1987, 90, 229-238. The procedure relies upon the ability of 5-HT to induce depolarization of neurones in the cervical vagus nerve by a direct action on 5-HT3 receptors. A concentration-response curve to 5-HT induced depolarization is obtained and the antagonists are added to the bath containing the isolated nerve before repeating the 5-HT concentration-response curve. Antagonist potency is estimated for the 5-HT concentration ratios and expressed as an apparent pKB value (where KB is the antagonist dissociation constant).

The target of assay [2] is T2, 5-HT3 receptors (Oryctolagus cuniculus, UniProt A0A5F9C9J3).
T2 construct: 5-HT3 receptors present on sympathetic nerve terminals in the heart; from tissue; host or cells: isolated right atrium of the rabbit heart (sympathetic nerve terminals)
T2 sequence (A0A5F9C9J3 1-494): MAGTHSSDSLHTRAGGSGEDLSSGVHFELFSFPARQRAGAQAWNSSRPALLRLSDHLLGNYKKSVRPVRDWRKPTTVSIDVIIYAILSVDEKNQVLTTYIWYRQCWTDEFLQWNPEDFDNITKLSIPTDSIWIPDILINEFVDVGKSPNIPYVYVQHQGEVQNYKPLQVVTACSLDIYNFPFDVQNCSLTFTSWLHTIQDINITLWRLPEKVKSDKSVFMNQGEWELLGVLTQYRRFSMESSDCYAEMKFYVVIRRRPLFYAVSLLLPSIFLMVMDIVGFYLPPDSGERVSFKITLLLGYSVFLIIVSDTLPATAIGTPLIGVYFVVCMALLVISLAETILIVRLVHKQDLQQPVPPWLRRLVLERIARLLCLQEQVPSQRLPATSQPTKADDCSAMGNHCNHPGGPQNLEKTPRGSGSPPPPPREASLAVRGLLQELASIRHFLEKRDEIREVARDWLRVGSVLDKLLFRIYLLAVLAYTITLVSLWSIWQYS
As to the kind of experiment: 5-HT3 antagonistic activity in the isolated right atrium of the rabbit heart. The note with it: antagonism of 5-HT evoked increase in spontaneous rate of beating, read-out: apparent pKB (converted). How it is done: The compounds of the invention are also tested for 5-HT3 antagonistic activity in the isolated right atrium of the rabbit heart based upon the method of Fozard J. R., Naunyn-Schmiedeberg's Arch. Pharmacol., 1984, 326, 36-44. This procedure relies upon the ability of 5-HT to stimulate 5-HT3 receptors present on sympathetic nerve terminals in the heart, causing release of noradrenaline which evokes an increase in the spontaneous rate of beating. The antagonist potency is expressed in a similar manner to that of the preceding test method i.e. as an apparent pKB.

For `CN1[C@@H]2CC[C@H]1C[C@@H](Oc1ccc3ccccc3n1)C2` [Example 2, Endo-8-methyl-3-(2-quinolyloxy)-8-aza-bicyclo[3.2.1]octane], the Kb in assay [1] was 0.0316 µM; in assay [2], 0.00251 µM.
